Measured values as given in patent publication US20240360417A1, “CELL THERAPEUTIC AGENT FOR CANCER TREATMENT AND COMBINATION THERAPY WITH SAME” (Cell&Brain Co., Ltd, priority 2015, published 2024).

Key:
[1] = tested on: U87MG glioma cells expressing LacZ; experiment: In vivo combination therapy with temozolomide, orthotopic brain tumor model; settings: survival measured up to 90 days
Method: On the 6th days after transplantation of U87MG glioma cells expressing LacZ, the F cells prepared in Preparation Example 2 were suspended in a Plasma Solution A, followed by centrifugation at 500×g for 5 minutes. The supernatant was discarded, and the washing procedure was repeated twice. Then, the cell suspension was prepared to have a concentration of 3×10^5/6 μl. The cell suspension was transplanted at a rate of 0.3 μl/min at the brain coordinates of AP=+0.5 mm, ML=−1.8 mm, and DV=−3 mm. From the next day after the cell transplantation, 5-FC (15 mg/ml physiological saline) was intraperitoneally injected at a dose of 500 mg/kg for one week. […] On 28th day, brain tissues were obtained from 8 animals in each animal group and X-gal staining was performed in the same manner as in Example 2 to measure the size of brain tumor.

U87/GFP = experiment: In vitro combination therapy of F cells + 5-FC with irinotecan (isobologram); assay type: cell-based; settings: 144 h; U87/GFP co-cultured with F cells (MSC/CD), 6 days; read-out: IC50 values obtained by treatment alone
Method: 10,000 U87/GFP and 10,000 F cells (MSC/CD) were cultured in a 12-well plate. From the next day, the cells were treated with Irinotecan (Sigma) at a concentration of 0 to 30 μM and the prodrug 5-FC at a concentration of 0 to 300 μM, and cultured for 6 days while replacing with a new medium containing the drug once every two days. On the 7th day, the culture solution was removed, 200 μl of 1× passive lysis buffer was then added to each well, and each well was allowed to stand at 4° C. for 10 minutes. The cell lysate was collected and centrifuged at 12,000 rpm for 5 minutes to obtain supernatant. 100 μl of the supernatant was transferred to a black 96-well plate in which light is blocked, and the intensity of fluorescence was measured under conditions of excitation 488 nm and emission 530 nm using a fluorimeter (GEMINI EM).

IC50 (U87/GFP) [µM] | Structure (SMILES) | median survival [1] [days]
 | Cn1nnc2c(C(N)=O)ncn2c1=O [temozolomide] | 42
73.6 | Nc1nc(=O)[nH]cc1F [5-FC, 5-fluorocytosine] | 
3.2 | CCc1c2c(nc3ccc(OC(=O)N4CCC(N5CCCCC5)CC4)cc13)-c1cc3c(c(=O)n1C2)COC(=O)[C@]3(O)CC [irinotecan] | 
